From patent US8637501B2, “Azinone-substituted azepino[b]indole and pyrido-pyrrolo-azepine MCH-1 antagonists, methods of making, and use thereof” (Albany Molecular Research, Inc., priority 2009, dated 2014)
Structures can show the parent of a compound that is named as a salt.

Biological target: human MCH-1 receptor (Homo sapiens (Human), UniProt Q99705)
Assay: Binding Assay for Human Melanin-Concentrating Hormone (MCH-1) Receptor
Settings: radioligand displacement, membranes from CHO-K1 cells expressing human MCH-1 receptor; Ki from IC50 by Cheng Prusoff equation; read-out: MCH1 Ki
Method: Binding Assay for Human Melanin-Concentrating Hormone (MCH-1) Receptor
Evaluation of the affinity of compounds for the human MCH-1 receptor was accomplished using 4-(3,4,5-tritritiumbenzyloxy)-1-(1-(2-(pyrrolidin-1-yl)ethyl)-1H-indazol-5-yl)pyridin-2(1H)-one and membranes prepared from stable CHO-K1 cells expressing the human MCH-1 receptor obtained from Euroscreen (Batch 1138). Cell membrane homogenates (8.92 μg protein) were incubated for 60 min at 25° C. with 1.4 nM of the [^3H]-labeled compound in the absence or presence of the test compound in 50 mM Tris-HCl buffer, pH 7.4. Nonspecific binding was determined in the presence of 50 μM 1-(5-(4-cyanophenyl)bicyclo[3.1.0]hexan-2-yl)-3-(4-fluoro-3-(trifluoromethyl)phenyl)-1-(3-(4-methylpiperazin-1-yl)propyl)urea. Following incubation, the samples were filtered rapidly under vacuum through Skatron 11731 filters, pre-soaked in 0.5% polyethylenimine, and washed with ice-cold 50 mM Tris-HCl buffer, pH 7.4, (wash setting 9,9,0) using a Skatron cell harvester. The filters were counted for radioactivity in a liquid scintillation counter (Tri-Carb 2100TR, Packard) using a scintillation cocktail (Ultima Gold MV, Perkin Elmer).
The results are expressed as a percent inhibition of the control radioligand specific binding. The IC50 value (concentration causing a half-maximal inhibition of control specific binding) and Hill coefficient (nH) were determined by non-linear regression analysis of the competition curve using Hill equation curve fitting. The inhibition constant (Ki) was calculated from the Cheng Prusoff equation: (Ki=IC50/(1+(L/KD)), where L=concentration of radioligand in the assay, and KD=affinity of the radioligand for the receptor.

Chain of human MCH-1 receptor (Q99705 whole entry): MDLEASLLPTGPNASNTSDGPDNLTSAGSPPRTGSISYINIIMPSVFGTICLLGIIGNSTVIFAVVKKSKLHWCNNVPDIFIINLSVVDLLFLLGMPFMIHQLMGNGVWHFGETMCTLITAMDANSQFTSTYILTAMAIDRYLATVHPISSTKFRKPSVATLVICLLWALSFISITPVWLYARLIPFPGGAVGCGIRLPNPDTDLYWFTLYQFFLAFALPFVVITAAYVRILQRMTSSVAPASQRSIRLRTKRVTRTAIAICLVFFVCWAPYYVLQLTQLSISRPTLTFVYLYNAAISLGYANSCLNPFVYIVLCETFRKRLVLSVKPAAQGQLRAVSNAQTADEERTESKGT

SMILES	Ki
Cn1c2c(c3ccc(-n4ccc(OCc5ccc(F)cn5)cc4=O)cc31)CNCCC2 [Example 22, 4-((5-Fluoropyridin-2-yl)methoxy)-1-(6-methyl-1,2,3,4,5,6-hexahydroazepino[4,3-b]indol-8-yl)-)pyridin-2(1H)-one hydrochloride]	11.2 nM
CCN1CCCc2c(c3ccc(-n4ccc(OCc5ccccc5)cc4=O)cc3n2C)C1 [Example 30, 4-(Benzyloxy)-1-(2-ethyl-6-methyl-1,2,3,4,5,6-hexahydroazepino[4,3-b]indol-8-yl)pyridin-2(1H)-one hydrochloride]	5 nM
CC(C)N1CCCc2c(c3ccc(-n4ccc(OCc5ccccc5)cc4=O)cc3n2C)C1 [Example 31, 4-(Benzyloxy)-1-(2-isopropyl-6-methyl-1,2,3,4,5,6-hexahydroazepino[4,3-b]indol-8-yl)pyridin-2(1H)-one hydrochloride]	9.4 nM
Cc1ccc(COc2ccn(-c3ccc4c5c(n(C)c4c3)CCCNC5)c(=O)c2)cn1 [Example 34, 1-(6-Methyl-1,2,3,4,5,6-hexahydroazepino[4,3-b]indol-8-yl)-4-((6-methylpyridin-3-yl)methoxy)pyridin-2(1H)-one hydrochloride]	10.6 nM
O=c1cc(OCc2ccccc2)ccn1-c1ccc2c3c([nH]c2c1)CCCNC3 [Example 35, 4-(Benzyloxy)-1-(1,2,3,4,5,6-hexahydroazepino[4,3-b]indol-8-yl)pyridin-2(1H)-one hydrochloride]	5.8 nM
Cn1c2c(c3ccc(-n4ncc(OCc5ccc(F)cn5)cc4=O)cc31)CNCCC2 [Example 39, 5-((5-Fluoropyridin-2-yl)methoxy)-2-(6-methyl-1,2,3,4,5,6-hexahydroazepino[4,3-b]indol-8-yl)pyridazin-3(2H)-one hydrochloride]	16.8 nM
Cl.Cn1c2c(c3ccc(-n4ccc(OCc5ccc(F)cn5)cc4=O)cc31)CCNCC2 [Example 40, 4-((5-Fluoropyridin-2-yl)methoxy-1-(6-methyl-1,2,3,4,5,6-hexahydroazepino[4,5-b]indol-8-yl)pyridin-2(1H)-one hydrochloride]	7.2 nM
CC(C)N1CCc2[nH]c3cc(-n4ccc(OCc5ccc(F)cn5)cc4=O)ccc3c2CC1 [Example 42, 4-((5-Fluoropyridin-2-yl)methoxy)-1-(3-isopropyl-1,2,3,4,5,6-hexahydroazepino[4,5-b]indol-8-yl)-pyridin-2(1H)-one hydrochloride]	17.8 nM
Cn1c2c(c3ccc(-n4ccc(OCc5ccccc5)cc4=O)cc31)CCNCC2 [Example 43, 4-(Benzyloxy)-1-(6-methyl-1,2,3,4,5,6-hexahydroazepino[4,5-b]indol-8-yl)pyridin-2(1H)-one hydrochloride]	8.9 nM
CN1CCc2c(n(C)c3cc(-n4ccc(OCc5ccccc5)cc4=O)ccc23)CC1 [Example 44, 4-(benzyloxy)-1-(3,6-dimethyl-1,2,3,4,5,6-hexahydroazepino[4,5-b]indol-8-yl)pyridin-2(1H)-one hydrochloride]	11.6 nM
Cc1ccc(COc2ccn(-c3ccc4c5c(n(C)c4c3)CCNCC5)c(=O)c2)cn1 [Example 45, 1-(6-Methyl-1,2,3,4,5,6-hexahydroazepino[4,5-b]indol-8-yl)-4-((6-methylpyridin-3-yl)methoxy)pyridin-2(1H)-one dihydrochloride]	26 nM
Cn1c2c(c3ccc(-n4ccc(OCc5ccc(Cl)cn5)cc4=O)cc31)CCNCC2 [Example 50, 4-((5-Chloropyridin-2-yl)methoxy)-1-(6-methyl-1,2,3,4,5,6-hexahydroazepino[4,5-b]indol-8-yl)pyridin-2(1H)-one hydrochloride]	7.4 nM
Cn1c2c(c3ccc(-n4ccc(OCc5ccc(Cl)cc5Cl)cc4=O)cc31)CCNCC2 [Example 51, 4-(2,4-Dichlorobenzyloxy)-1-(6-methyl-1,2,3,4,5,6-hexahydroazepino[4,5-b]indol-8-yl)pyridin-2(1H)-one]	24 nM
Cn1c2c(c3ccc(-n4ccc(OCc5ccc(F)cc5F)cc4=O)cc31)CCNCC2 [Example 52, 4-(2,4-Difluorobenzyloxy)-1-(6-methyl-1,2,3,4,5,6-hexahydroazepino[4,5-b]indol-8-yl)pyridin-2(1H)-one hydrochloride]	7.8 nM
Cn1c2c(c3ccc(N4CCN(CCc5ccc(Cl)cc5)CC4=O)cc31)CCNCC2 [Example 53, 4-(4-Chlorophenethyl)-1-(6-methyl-1,2,3,4,5,6-hexahydroazepino[4,5-b]indol-8-yl)piperazin-2-one dihydrochloride]	13 nM
Cn1c2c(c3ccc(-n4ccc(OCc5ccc(Cl)cc5F)cc4=O)cc31)CCNCC2 [Example 55, 4-(4-Chloro-2-fluorobenzyloxy)-1-(6-methyl-1,2,3,4,5,6-hexahydroazepino[4,5-b]indol-8-yl)pyridin-2(1H)-one hydrochloride]	12 nM
Cn1c2c(c3ccc(-n4ccc(OCc5ccc(F)cc5)cc4=O)cc31)CCNCC2 [Example 57, 4-(4-Fluorobenzyloxy)-1-(6-methyl-1,2,3,4,5,6-hexahydroazepino[4,5-b]indol-8-yl)pyridin-2(1H)-one hydrochloride]	7.3 nM
Cn1c2c(c3ccc(N4CCN(CCc5ccccn5)CC4=O)cc31)CNCCC2 [Example 59, 1-(6-Methyl-1,2,3,4,5,6-hexahydroazepino[4,3-b]indol-8-yl)-4-(2-(pyridin-2-yl)ethyl)piperazin-2-one dihydrochloride]	44 nM
Cn1c2c(c3ccc(-n4ncc(OCc5ccc(C(F)(F)F)nc5)cc4=O)cc31)CNCCC2 [Example 60, 2-(6-Methyl-1,2,3,4,5,6-hexahydroazepino[4,3-b]indol-8-yl)-5-((6-(trifluoromethyl)pyridin-3-yl)methoxy)pyridazin-3(2H)-one hydrochloride]	21 nM
Cn1c2c(c3ccc(-n4ccc(OCc5ccc(Cl)cc5Cl)cc4=O)cc31)CNCCC2 [Example 65, 4-(2,4-Dichlorobenzyloxy)-1-(6-methyl-1,2,3,4,5,6-hexahydroazepino[4,3-b]indol-8-yl)pyridin-2(1H)-one hydrochloride]	11 nM

The remaining lines, values ahead:

Ki	SMILES
6.4 nM	Cn1c2c(c3ccc(-n4ccc(OCc5ccc(C(F)(F)F)nc5)cc4=O)cc31)CNCCC2 [Example 24, 1-(6-Methyl-1,2,3,4,5,6-hexahydroazepino[4,3-b]indol-8-yl)-4-((6-(trifluoromethyl)pyridin-3-yl)methoxy)pyridin-2(1H)-one hydrochloride]
42.3 nM	Cn1c2c(c3ccc(-n4ccc(-c5cnc(C(F)(F)F)nc5)cc4=O)cc31)CNCCC2 [Example 25, 1-(6-Methyl-1,2,3,4,5,6-hexahydroazepino[4,3-b]indol-8-yl)-4-(2-(trifluoromethyl)pyrimdin-5-yl)pyridin-2(1H)-one hydrochloride]
6.1 nM	Cl.Cn1c2c(c3ccc(-n4ccc(-c5ccc(C(F)(F)F)cc5)cc4=O)cc31)CNCCC2 [Example 26, 1-(6-Methyl-1,2,3,4,5,6-hexahydroazepino[4,3-b]indol-8-yl)-4(4-trifluoromethyl)phenyl)pyridin-2(1H)-one hydrochloride]
5 nM	CN1CCCc2c(c3ccc(-n4ccc(OCc5ccccc5)cc4=O)cc3n2C)C1 [Example 29, 4-(Benzyloxy)-1-(2,6-dimethyl-1,2,3,4,5,6-hexahydroazepino[4,3-b]indol-8-yl)pyridin-2(1H)-one hydrochloride]
10 nM	Cl.Cn1c2c(c3ccc(-n4ccc(-c5ccc(C(F)(F)F)cc5)cc4=O)cc31)CCNCC2 [Example 41, 1-(6-Methyl-1,2,3,4,5,6-hexahydroazepino[4,5-b]indol-8-yl)-4(4-trifluoromethyl)phenyl)pyridin-2(1H)-one hydrochloride]
47 nM	CC(=O)N1CCc2c(n(C)c3cc(-n4ccc(-c5ccc(C(F)(F)F)nc5)cc4=O)ccc23)CC1 [Example 46, 1-(3-Acetyl-6-methyl-1,2,3,4,5,6-hexahydroazepino[4,5-b]indol-8-yl)-4-(6-(trifluoromethyl)pyridin-3-yl)pyridin-2(1H)-one]
17 nM	Cn1c2c(c3ccc(-n4ccc(-c5ccc(C(F)(F)F)cc5)nc4=O)cc31)CCNCC2 [Example 49, 1-(6-Methyl-1,2,3,4,5,6-hexahydroazepino[4,5-b]indol-8-yl)-4-(4-(trifluoromethyl)phenyl)pyrimidin-2(1H)-one hydrochloride]
163 nM	Cn1c2c(c3ccc(-n4ccc(-c5ccc(C(F)(F)F)nc5)nc4=O)cc31)CCNCC2 [Example 58, 1-(6-Methyl-1,2,3,4,5,6-hexahydroazepino[4,5-b]indol-8-yl)-4-(6-(trifluoromethyl)pyridin-3-yl)pyrimidin-2(1H)-one hydrochloride]
12 nM	CN1CCCc2c(c3ccc(-n4ccc(-c5ccc(C(F)(F)F)nn5)cc4=O)cc3n2C)C1 [Example 69, 1-(2,6-Dimethyl-1,2,3,4,5,6-hexahydroazepino[4,3-b]indol-8-yl)-4-(6-(trifluoromethyl)pyridazin-3-yl)pyridin-2(1H)-one hydrochloride]
